Among the data in ChEMBL document CHEMBL3046301, “A study on the genotoxic activities of some new benzoxazoles” (Med Chem Res, 2007) are MIC and selectivity ratio values, retold here.

The test system of series [1] is Bacillus subtilis. In words: Genotoxicity in wild type Bacillus subtilis H17 assessed as growth inhibition. It is filed as toxicity, organism-based. The note with it: in vivo.
Series [2] has as its system Bacillus subtilis. In words: Genotoxicity in recombination-deficient Bacillus subtilis M45 assessed as growth inhibition. Format: toxicity, organism-based. The following applies: in vivo.
Series [3] in a line: Ratio of CR50 for wild type Bacillus subtilis H17 to CR50 for recombination-deficient Bacillus subtilis M45. It is filed as ADME, organism-based.

Converted amounts (≈) assume the structure as drawn.

`Nc1ccc2oc(-c3ccc(Br)cc3)nc2c1`: the MIC with Bacillus subtilis [1] stood at 1000 µg/mL (≈ 3460 µM); with Bacillus subtilis [2], 1000 µg/mL. In addition, the selectivity ratio in series [3] turned out to be 1.05.

Consider `Nc1ccc(-c2nc3cc(Cl)ccc3o2)cc1`, for which the results for the MIC in the series on Bacillus subtilis [1] and with Bacillus subtilis [2] were 2000 µg/mL (≈ 8170 µM) and 2000 µg/mL, respectively. Moreover, the selectivity ratio in series [3] was determined as 1.

Consider `Clc1ccc(OCc2nc3cc(Cl)ccc3o2)cc1`, for which the figures for the MIC with Bacillus subtilis [1] and in the series with Bacillus subtilis [2] were 500 µg/mL (≈ 1700 µM) and 500 µg/mL, respectively. Also, in series [3], the selectivity ratio came out at 1.

In the case of `CNc1ccc(-c2nc3ccccc3o2)cc1`, the MIC was 1000 µg/mL (≈ 4460 µM) in the series on Bacillus subtilis [1] and 500 µg/mL with Bacillus subtilis [2]. For the same compound, the selectivity ratio in series [3] amounted to 1.5.

On to `O=[N+]([O-])c1cc2oc(C3CCCCC3)nc2cc1Cl`, for which the MIC came out at 500 µg/mL (≈ 1780 µM) in the series on Bacillus subtilis [1] and 500 µg/mL in the series on Bacillus subtilis [2]. For the same compound, the selectivity ratio in series [3] stood at 1.25.

As to `Clc1ccc2oc(Cc3ccc(Br)cc3)nc2c1`, the MIC in the series with Bacillus subtilis [1] was determined as 1000 µg/mL (≈ 3100 µM); with Bacillus subtilis [2], 1000 µg/mL. Moreover, in series [3], the selectivity ratio was determined as 1.05.

Take `Nc1ccc2oc(Cc3ccc(F)cc3)nc2c1`: the MIC in the series with Bacillus subtilis [1] stood at 500 µg/mL (≈ 2060 µM); in the series on Bacillus subtilis [2] it was 500 µg/mL. Moreover, in series [3], the selectivity ratio amounted to 1.25.

With `Cc1ccc(Cc2nc3cc(N)ccc3o2)cc1`, the MIC was determined as 500 µg/mL (≈ 2100 µM) with Bacillus subtilis [1] and 500 µg/mL in the series on Bacillus subtilis [2]. Moreover, the selectivity ratio in series [3] amounted to 1.74.

With `O=C(Nc1ccc2oc(-c3ccccc3)nc2c1)c1ccc(F)cc1`, the MIC in the series on Bacillus subtilis [1] worked out at 1000 µg/mL (≈ 3010 µM); in the series on Bacillus subtilis [2] it was 500 µg/mL. For the same compound, the selectivity ratio in series [3] came out at 1.6.

Take `O=[N+]([O-])c1cc[n+]([O-])c2ccccc12` [4-NITROQUINOLINE-1-OXIDE]: the MIC in the series with Bacillus subtilis [1] amounted to 1000 µg/mL (≈ 5260 µM); with Bacillus subtilis [2], 60 µg/mL. Moreover, in series [3], the selectivity ratio came out at 0.69.

In the case of `Cc1ccc2nc(COc3ccccc3)oc2c1`, the MIC is 1000 µg/mL (≈ 4180 µM) in the series on Bacillus subtilis [1] and 1000 µg/mL in the series on Bacillus subtilis [2]. In series [3], the selectivity ratio is 0.93.

Turning to `CCc1ccc(-c2nc3cc(NC(=O)Cc4ccc(Br)cc4)ccc3o2)cc1`, the figures for the MIC in the series with Bacillus subtilis [1] and in the series on Bacillus subtilis [2] were 500 µg/mL (≈ 1150 µM) and 500 µg/mL, respectively. The selectivity ratio in series [3] was 0.95.

On to `O=[N+]([O-])c1ccc2oc(-c3ccccc3)nc2c1`, for which the MIC in the series with Bacillus subtilis [1] came to 500 µg/mL (≈ 2080 µM); in the series on Bacillus subtilis [2], 500 µg/mL. For the same compound, in series [3], the selectivity ratio worked out at 1.07.

As for `CCOc1ccc(Cc2nc3cc([N+](=O)[O-])ccc3o2)cc1`, the MIC with Bacillus subtilis [1] came out at 500 µg/mL (≈ 1680 µM); with Bacillus subtilis [2], 500 µg/mL. For the same compound, the selectivity ratio in series [3] amounted to 1.27.

As to `Cc1ccc2nc(-c3ccccc3Cl)oc2c1`, the MIC in the series with Bacillus subtilis [1] turned out to be 125 µg/mL (≈ 513 µM); in the series with Bacillus subtilis [2], 60 µg/mL. Also, the selectivity ratio in series [3] stood at 1.85.

On to `Cc1ccc2[nH]c(Cc3ccc(Br)cc3)nc2c1`, for which the MIC was 30 µg/mL (≈ 99.6 µM) in the series on Bacillus subtilis [1] and 125 µg/mL with Bacillus subtilis [2]. Also, in series [3], the selectivity ratio stood at 0.49.

Take `Clc1ccc2[nH]c(CC3CCCCC3)nc2c1`: the MIC came out at 1000 µg/mL (≈ 4020 µM) in the series on Bacillus subtilis [1] and 500 µg/mL in the series on Bacillus subtilis [2]. Also, the selectivity ratio in series [3] was determined as 0.93.

For the compound `O=C(Cc1ccc(F)cc1)Nc1ccc2oc(Cc3ccccc3)nc2c1`, the MIC in the series with Bacillus subtilis [1] was determined as 500 µg/mL (≈ 1390 µM); in the series on Bacillus subtilis [2], 500 µg/mL. In series [3], the selectivity ratio was determined as 0.58.

Take `Cc1ccc2oc(-c3ccccc3[N+](=O)[O-])nc2c1`: the MIC in the series on Bacillus subtilis [1] is 500 µg/mL (≈ 1970 µM); with Bacillus subtilis [2] it was 500 µg/mL. In addition, in series [3], the selectivity ratio is 0.96.
